Values joined by “and” are separate entries in the source; they are usually repeats but may differ in a detail not shown here. Equal values may be shown once. Toxic doses and inconclusive results are not listed. No stated cut-off is given here; in the data, active means T/C of 150% or more; inactive means T/C below 125%.
System: L1210 leukemia ip in BDF1 mice, survival T/C
Assay: NCI In Vivo Anticancer Drug Screen. Data for tumor model L1210 Leukemia (intraperitoneal) in B6D2F1 (BDF1) mice
Settings: endpoint: mean survival time, higher = longer survival
Summary of the method: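 Value reflects the ratio of survival in compound-treated mice to survival in vehicle-treated controls, with both groups carrying the same transplanted tumor.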

[1] = dose: 200.0 mg/kg/injection, schedule: Q04DX003 (ip), vehicle: saline with Tween-80
[2] = dose: 400.0 mg/kg/injection, schedule: Q04DX003 (ip), vehicle: saline with Tween-80
[3] = dose: 100.0 mg/kg/injection, schedule: Q01DX009 (ip), vehicle: saline
[4] = dose: 100.0 mg/kg/injection, schedule: Q04DX003 (ip), vehicle: saline
[5] = dose: 200.0 mg/kg/injection, schedule: Q01DX009 (ip), vehicle: saline
[6] = dose: 200.0 mg/kg/injection, schedule: Q04DX003 (ip), vehicle: saline
[7] = dose: 400.0 mg/kg/injection, schedule: Q01DX009 (ip), vehicle: saline
[8] = dose: 400.0 mg/kg/injection, schedule: Q04DX003 (ip), vehicle: saline
[9] = dose: 50.0 mg/kg/injection, schedule: Q01DX001 (ip), vehicle: Klucel (hydroxypropylcellulose) (HPC)
[10] = dose: 100.0 mg/kg/injection, schedule: Q01DX001 (ip), vehicle: Klucel (hydroxypropylcellulose) (HPC)
[11] = dose: 200.0 mg/kg/injection, schedule: Q01DX001 (ip), vehicle: Klucel (hydroxypropylcellulose) (HPC)
[12] = dose: 100.0 mg/kg/injection, schedule: Q04DX002 (ip), vehicle: saline with Tween-80
[13] = dose: 200.0 mg/kg/injection, schedule: Q04DX002 (ip), vehicle: saline with Tween-80
[14] = dose: 400.0 mg/kg/injection, schedule: Q04DX002 (ip), vehicle: saline with Tween-80
[15] = dose: 50.0 mg/kg/injection, schedule: Q01DX009 (ip), vehicle: Klucel (hydroxypropylcellulose) (HPC)
[16] = dose: 100.0 mg/kg/injection, schedule: Q01DX009 (ip), vehicle: Klucel (hydroxypropylcellulose) (HPC)
[17] = dose: 100.0 mg/kg/injection, schedule: Q04DX003 (ip), vehicle: Klucel (hydroxypropylcellulose) (HPC)
[18] = dose: 200.0 mg/kg/injection, schedule: Q04DX003 (ip), vehicle: Klucel (hydroxypropylcellulose) (HPC)
[19] = dose: 400.0 mg/kg/injection, schedule: Q04DX003 (ip), vehicle: Klucel (hydroxypropylcellulose) (HPC)
[20] = dose: 100.0 mg/kg/injection, schedule: Q04DX003 (ip), vehicle: saline with Tween-80

Measured: T/C

COc1ccc(/C(C)=N/N=C(\C)c2ccc(OC)cc2)cc1
inactive: [1] 94 % of control | [2] 91 % of control

OCC(CO)(CO)CBr
inactive: [3] 96 % of control | [4] 103 % of control | [5] 105 % of control | [6] 98 % of control | [7] 104 % of control | [8] 104 % of control

C[N+](C)(C)CC1(COC(=O)C(O)(c2ccccc2)c2ccccc2)CCC1
inactive: dose: 12.0 mg/kg/injection, schedule: Q01DX001 (ip), vehicle: Klucel (hydroxypropylcellulose) (HPC) 100 % of control | dose: 12.0 mg/kg/injection, schedule: Q04DX003 (ip), vehicle: Klucel (hydroxypropylcellulose) (HPC) 94 % of control | dose: 25.0 mg/kg/injection, schedule: Q01DX001 (ip), vehicle: Klucel (hydroxypropylcellulose) (HPC) 98 % of control | dose: 25.0 mg/kg/injection, schedule: Q04DX003 (ip), vehicle: Klucel (hydroxypropylcellulose) (HPC) 86 % of control | [9] 96 % of control | dose: 50.0 mg/kg/injection, schedule: Q04DX003 (ip), vehicle: Klucel (hydroxypropylcellulose) (HPC) 86 % of control

CC(OC(=O)c1ccc([N+](=O)[O-])cc1)C(C)OC(=O)c1ccc([N+](=O)[O-])cc1 (stereo not given)
inactive: [10] 92 % of control | [11] 97 % of control | dose: 400.0 mg/kg/injection, schedule: Q01DX001 (ip), vehicle: Klucel (hydroxypropylcellulose) (HPC) 97 % of control

Cc1cc(C)c([N+](=O)[O-])cc1N
inactive: [9] 101 % of control | [10] 98 % of control | [11] 93 % of control

CC[CH2][Sn]([Cl])([Cl])[CH2]CC.Oc1ccccc1C=NCCN=Cc1ccccc1O
inactive: dose: 2.5 mg/kg/injection, schedule: Q01DX009 (ip), vehicle: saline with Tween-80 101 % of control and 109 % of control | dose: 5.0 mg/kg/injection, schedule: Q01DX009 (ip), vehicle: saline with Tween-80 113 % of control | dose: 6.6 mg/kg/injection, schedule: Q01DX009 (ip), vehicle: saline with Tween-80 87 % of control

O=C(O)c1cc2c(cc1[N+](=O)[O-])OCO2
inactive: [12] 104 % of control | [13] 92 % of control | [14] 90 % of control

CN(C)c1ccc(/C=C/c2nc3ccc([N+](=O)[O-])cc3[nH]2)cc1
inactive: [15] 97 % of control | [16] 97 % of control | [17] 97 % of control | dose: 200.0 mg/kg/injection, schedule: Q01DX009 (ip), vehicle: Klucel (hydroxypropylcellulose) (HPC) 92 % of control | [18] 102 % of control | dose: 400.0 mg/kg/injection, schedule: Q01DX009 (ip), vehicle: Klucel (hydroxypropylcellulose) (HPC) 94 % of control | [19] 103 % of control

Cc1ccc(Cl)cc1NS(=O)(=O)c1ccc(Br)cc1
inactive: dose: 100.0 mg/kg/injection, schedule: Q01DX009 (ip), vehicle: saline with Tween-80 95 % of control | [20] 88 % of control | dose: 200.0 mg/kg/injection, schedule: Q01DX009 (ip), vehicle: saline with Tween-80 90 % of control | [1] 94 % of control | dose: 400.0 mg/kg/injection, schedule: Q01DX009 (ip), vehicle: saline with Tween-80 90 % of control | [2] 94 % of control

O=C(O)C1OC1(c1cccc(Cl)c1)c1ccccc1Cl (stereo not given)
inactive: dose: 100.0 mg/kg/injection, schedule: Q01DX001 (ip), vehicle: olive oil, sesame oil, peanut oil 101 % of control | dose: 200.0 mg/kg/injection, schedule: Q01DX001 (ip), vehicle: olive oil, sesame oil, peanut oil 106 % of control

COc1c(Cl)cc2c(c1OC)N(C)C1N3C(=O)C4(C)SSC3(C(=O)N4C)C(O)C21O (stereo not given)
inactive: dose: 0.12 mg/kg/injection, schedule: Q01DX009 (ip), vehicle: Klucel (hydroxypropylcellulose) (HPC) 106 % of control | dose: 0.25 mg/kg/injection, schedule: Q01DX009 (ip), vehicle: Klucel (hydroxypropylcellulose) (HPC) 101 % of control | dose: 0.5 mg/kg/injection, schedule: Q01DX009 (ip), vehicle: Klucel (hydroxypropylcellulose) (HPC) 110 % of control | dose: 1.0 mg/kg/injection, schedule: Q01DX009 (ip), vehicle: Klucel (hydroxypropylcellulose) (HPC) 108 % of control

CCN(CC)CCC(=O)c1cccs1
inactive: [3] 87 % of control | [5] 89 % of control

O=[N+]([O-])c1cccs1
inactive: [15] 97 % of control | [16] 108 % of control | dose: 100.0 mg/kg/injection, schedule: Q04DX003 (ip), vehicle: other 104 % of control | dose: 200.0 mg/kg/injection, schedule: Q04DX003 (ip), vehicle: other 103 % of control

CC(=O)OCOC(COC(C)=O)C1OCOC(COC(C)=O)C1OCOC(C)=O (stereo not given)
inactive: [12] 100 % of control | [13] 100 % of control | [14] 100 % of control

CCOC(=O)CCN1CCCCC1
inactive: [3] 101 % of control | [4] 93 % of control | [5] 98 % of control | [6] 97 % of control | [7] 104 % of control | [8] 103 % of control

Cc1ccnc2c1ccc1ccccc12
inactive: dose: 100.0 mg/kg/injection, schedule: Q01DX001 (ip), vehicle: saline 100 % of control | dose: 200.0 mg/kg/injection, schedule: Q01DX001 (ip), vehicle: saline 98 % of control | dose: 400.0 mg/kg/injection, schedule: Q01DX001 (ip), vehicle: saline 93 % of control

CCOC1=C(Cl)C(=O)C(OCC)=C(Cl)C1=O
inactive: dose: 4.0 mg/kg/injection, schedule: Q04DX003 (ip), vehicle: DMSO 98 % of control | dose: 6.0 mg/kg/injection, schedule: Q04DX003 (ip), vehicle: DMSO 98 % of control | dose: 9.0 mg/kg/injection, schedule: Q04DX003 (ip), vehicle: DMSO 96 % of control and 86 % of control | dose: 75.0 mg/kg/injection, schedule: Q01DX001 (ip), vehicle: alcohol 92 % of control | dose: 150.0 mg/kg/injection, schedule: Q01DX001 (ip), vehicle: alcohol 97 % of control

CCCCOc1ccc(CCOC(C)=O)cc1
inactive: dose: 100.0 mg/kg/injection, schedule: Q04DX002 (ip), vehicle: Klucel (hydroxypropylcellulose) (HPC) 112 % of control | dose: 200.0 mg/kg/injection, schedule: Q04DX002 (ip), vehicle: Klucel (hydroxypropylcellulose) (HPC) 108 % of control | dose: 400.0 mg/kg/injection, schedule: Q04DX002 (ip), vehicle: Klucel (hydroxypropylcellulose) (HPC) 104 % of control

C1OCC2CCC(CC2)CO1
inactive: dose: 50.0 mg/kg/injection, schedule: Q01DX009 (ip), vehicle: saline 95 % of control | [3] 98 % of control | [5] 97 % of control

S=C(c1ccccn1)N1CCOCC1
inactive: [17] 90 % of control | [18] 102 % of control | [19] 95 % of control

CC1=CC(C)(C(Cl)(Cl)Cl)C=C/C1=N\OC(C)C(=O)O (stereo not given)
inactive: dose: 75.0 mg/kg/injection, schedule: Q01DX001 (ip), vehicle: carboxymethylcellulose (CMC) 95 % of control | [4] 106 % of control | dose: 150.0 mg/kg/injection, schedule: Q01DX001 (ip), vehicle: carboxymethylcellulose (CMC) 106 % of control | [6] 95 % of control | [8] 97 % of control

O/N=C1/CCCC/C1=C/c1ccccc1
inactive: [20] 101 % of control | [1] 97 % of control | [2] 100 % of control

— PubChem BioAssay AID248 (DTP/NCI, 2004)
